From patent US5057503A, “Derivativized polysaccharides with biologic activity, method of their isolation, and uses therefor” (The Brigham and Women's Hospital, priority 1989, dated 1991)

Test system: human monocyte β-glucan receptors
Assay: Inhibition of adherent monocyte phagocytosis of zymosan particles after pretreatment with isolated carbohydrates
Assay type: cell-based
Conditions: for phagocytosis-inhibiting activity after derivatization with 2-aminopyridine (in words): 100 ng/ml tested; for activity after derivatization with 2-aminopyridine (in words): as much as 800 ng/ml in the functional monocyte assays; for phagocytosis-inhibiting activity / interaction with human monocyte β-glucan receptors (in words): concentration not given

phagocytosis-inhibiting activity after derivatization with 2-aminopyridine (in words) | activity after derivatization with 2-aminopyridine (in words) | phagocytosis-inhibiting activity / interaction with human monocyte β-glucan receptors (in words) | Structure (SMILES) | effect on monocyte ingestion of zymosan (in words) (500 ng/ml to 100 μg/ml, without derivatization) | proportion of monocytes ingesting zymosan after pretreatment (100 μg/ml, without derivatization, without pretreatment 67% (synthetic β-heptaglucoside) and 50% (maltoheptose))
not acquired | remained inactive | remained inactive | OC[C@H]1O[C@H](O[C@H]2[C@H](O)[C@@H](O)[C@@H](O[C@H]3[C@H](O)[C@@H](O)[C@@H](O[C@H]4[C@H](O)[C@@H](O)[C@@H](O[C@H]5[C@H](O)[C@@H](O)[C@@H](O[C@H]6[C@H](O)[C@@H](O)[C@@H](O[C@H]7[C@H](O)[C@@H](O)C(Nc8ccccn8)O[C@@H]7CO)O[C@@H]6CO)O[C@@H]5CO)O[C@@H]4CO)O[C@@H]3CO)O[C@@H]2CO)[C@H](O)[C@@H](O)[C@@H]1O (some centres unmarked) [Derivatized maltoheptose] |  | 
not acquired | remained inactive | remained inactive | OC[C@H]1O[C@@H](OC[C@H]2O[C@@H](OC[C@H]3O[C@@H](OC[C@H]4O[C@@H](OC[C@H]5OC(Nc6ccccn6)[C@H](O)[C@@H](O)[C@@H]5O)[C@H](O)[C@@H](O[C@@H]5O[C@H](CO)[C@@H](O)[C@H](O)[C@H]5O)[C@@H]4O)[C@H](O)[C@@H](O)[C@@H]3O)[C@H](O)[C@@H](O[C@@H]3O[C@H](CO)[C@@H](O)[C@H](O)[C@H]3O)[C@@H]2O)[C@H](O)[C@@H](O)[C@@H]1O (stereo partly drawn) [Derivatized synthetic β-heptaglucoside] |  | 
 |  |  | OC[C@H]1O[C@H](O[C@H]2[C@H](O)[C@@H](O)[C@@H](O[C@H]3[C@H](O)[C@@H](O)[C@@H](O[C@H]4[C@H](O)[C@@H](O)[C@@H](O[C@H]5[C@H](O)[C@@H](O)[C@@H](O[C@H]6[C@H](O)[C@@H](O)[C@@H](O[C@H]7[C@H](O)[C@@H](O)C(O)O[C@@H]7CO)O[C@@H]6CO)O[C@@H]5CO)O[C@@H]4CO)O[C@@H]3CO)O[C@@H]2CO)[C@H](O)[C@@H](O)[C@@H]1O (some centres unmarked) [Maltoheptose] | no effect | 52%
